# Test results taken from patent US20230331817A1 (The Regents of the University of California, priority 2020, published 2023).
# Key:
# Plasma kallikrein (pKLK) = molecular target: T1, Plasma kallikrein (pKLK) (Homo sapiens, UniProt P03952); assay: Protease inhibition assay, plasma kallikrein; format: biochemical; settings: up to 3 μM inhibitor; 1 nM pKLK; triplicate
# T1 construct: Plasma kallikrein (pKLK) was from Enzyme Research Laboratories; purchased Enzyme Research Laboratories (South Bend, IN)
# Procedure: (§1) All reactions were carried out in TBS, pH 7.5 (50 mM Tris-HCL, pH 7.5, containing 100 mM NaCl), containing 0.1 mg bovine serum albumin/ml (TBS/BSA) and 2 mM Ca2+(TBS/BSA/Ca2+, pH 7.5). […] The inhibition constant, K* was determined using the nonlinear regression data analysis program Grafit.
# (§2) Ki values were obtained by correcting for the effect of substrate according to Beith (38), using equation 2, where (S) is substrate concentration and KM is specific for each enzyme.
# human FXIa = molecular target: T2, human FXIa (Homo sapiens, UniProt P03951); assay: Protease inhibition assay, factor XIa; format: biochemical; settings: up to 3 μM inhibitor; 1 nM FXIa; triplicate
# T2 construct: Purified human FXIa, thrombin (IIa) and plasmin were purchased; purchased Hematologic Technologies Inc (Essex Junction, VT)
# Procedure: as §1, §2
# FVIIa/sTF = molecular target: T3, FVIIa/sTF (Homo sapiens, UniProt P08709); assay: Protease inhibition assay, FVIIa/soluble tissue factor; format: biochemical; settings: up to 3 μM inhibitor; 20 nM FVIIa/sTF; triplicate
# T3 construct: human factor VIIa (FVIIa) was prepared as described previously (34)
# Procedure: as §1, §2
# DIP-δplasmin = assay: Surface plasmon resonance binding to DIP-δplasmin; settings: 25° C, 1:1 binding model
# Procedure: Active-site blocked δplasmin was generated by treating δplasmin with equal volumes of 1 M Tris-HCl, pH 8.0 and 1 M DFP (final concentration of 1 mM DFP) at room temperature for 20 minutes, followed by an incubation on ice for several hours. Additional equal volumes of 1M Tris-HCl, pH 8.0 and 1M DFP (final concentration of 2 mM) were added and the reaction was incubated at room temperature for 20 minutes and then over night at 4° C. The DFP inhibited Splamsin (DIP-δplasmin) was dialyzed against 20 mM HEPES pH 7.5, containing 150 mM NaCl and assayed for residual activity using S-2251 synthetic substrate hydrolysis. Based upon the residual activity, >99% of the δplasmin was inactivated.
# (§3) Binding studies were performed on a Biacore T100 flow biosensor (Biacore, Uppsala, Sweden) at 25° C. DIP-δplasmin (˜98% purity using SDS-PAGE) or tPA (>98% purity using SDS-PAGE) was immobilized on carboxymethyl-dextran flow cell (CM5 sensor chips, GE Healthcare) using amine-coupling chemistry. Flow cell surfaces were activated with a mixture of 1-ethyl-3-(3-dimethylaminopropyl) carbodiimide and N-hydroxysulfosuccinimide for 5 min (flow rate 10 μl/min), after which the protein (20 μg/ml in 10 mM sodium acetate, pH 5.5) was injected onto the surface. Unreacted sites were blocked for 5 minutes with 1 M ethanolamine. The analyte KD1-Y11T/L17R-KT (100 to 2000 nM) was perfused through flow cells in HBS-P buffer (20 mM HEPES, pH 7.4, 100 mM NaCl, 0.005% (v/v) P20) at 10 μl/minutes for 6 minutes. After changing to HBS-P buffer without the protein, analyte dissociation was monitored for 10 min. Flow cells were regenerated with HBS-P containing 20 mM EACA. Data were corrected for nonspecific binding by subtracting signals obtained with the analyte infused through a flow cell without the coupled protein. Binding was analyzed with BIAevaluation software (Biacore) using a 1:1 binding model. Kd values were calculated from the quotient of the derived dissociation (kd) and association (ka) rate constants.
# tPA = molecular target: T4, tPA (Homo sapiens, UniProt P00750); assay: Surface plasmon resonance binding to tPA; settings: 25° C; 1:1 binding model
# T4 construct: purchased Genentech (South San Francisco, CA)
# Procedure: as §3
# [1] = system: tPA-induced plasma clot fibrinolysis; assay: Fibrinolysis (clot lysis) assay in normal pooled plasma; format: biochemical; settings: human NPP
# Procedure: The method of Sperzel and Huetter (40) was followed with minor modifications as outlined earlier (32,41). Briefly, IIa was used to initiate fibrin formation in NPP and the lysis of the formed clot (fibrinolysis) was induced by simultaneous addition of tPA. Clot formation and lysis were monitored with a Molecular Devices microplate reader (SPECTRAmax 190) measuring the optical density at 405 nm. […] Two hundred twenty-five μL of this mixture was then added to 25 μL IIa and tPA in TBS/BSA containing 25 mM CaCl2). In the 250 μL final volume, concentration of IIa was 0.15 μg/ml and that of tPA was 1 μg/ml. Under control conditions (zero tPA and zero test compound), OD405 increased immediately indicating clotting followed by an extremely slow decrease representing fibrinolysis. As clotting was almost complete after 5 minutes, fibrinolysis induced by tPA was evaluated as a relative decrease of OD405 up to 60 minutes.
# Addition of thrombin (IIa) to human normal pooled plasma (NPP) caused fibrin formation, which is reflected by the increase in OD405 (black curve, FIGS. 3A and 3B). Simultaneous addition of tPA caused initial clot formation followed by dissolution of fibrin induced by tPA-mediated conversion of plasminogen to plasmin (black curve with closed circles, FIGS. 3A and 3B); the midpoint of fibrinolysis was ˜8 min in each case. Both antifibrinolytic agents inhibited fibrinolysis in a dose-dependent manner.
# [2] = system: plasmin induced lysis of clot formed in whole blood; assay: Thromboelastography, plasmin induced clot lysis in whole blood; format: biochemical, human
# Procedure: Plasmin and CaCl2) were added last to initiate simultaneous clotting and fibrinolysis. […] The thromboelastograph was calibrated each day and each inhibitor concentration was tested in duplicate. TEG Analytical Software (version 4.2.2; Haemonetics Corporation, Braintree, MA) was used to calculate the time to clot initiation (R), maximal clot strength (maximal amplitude (MA), which was directly related to the shear elastic modulus strength, G), and percent lysis 60 minutes after MA (LY60) (42).
# mouse injury models = settings: liver laceration model and tail amputation model; cited from earlier work
# [3] = NHB + […] plasmin, inhibitor 5 μM
# T4 sequence (P00750 36-562): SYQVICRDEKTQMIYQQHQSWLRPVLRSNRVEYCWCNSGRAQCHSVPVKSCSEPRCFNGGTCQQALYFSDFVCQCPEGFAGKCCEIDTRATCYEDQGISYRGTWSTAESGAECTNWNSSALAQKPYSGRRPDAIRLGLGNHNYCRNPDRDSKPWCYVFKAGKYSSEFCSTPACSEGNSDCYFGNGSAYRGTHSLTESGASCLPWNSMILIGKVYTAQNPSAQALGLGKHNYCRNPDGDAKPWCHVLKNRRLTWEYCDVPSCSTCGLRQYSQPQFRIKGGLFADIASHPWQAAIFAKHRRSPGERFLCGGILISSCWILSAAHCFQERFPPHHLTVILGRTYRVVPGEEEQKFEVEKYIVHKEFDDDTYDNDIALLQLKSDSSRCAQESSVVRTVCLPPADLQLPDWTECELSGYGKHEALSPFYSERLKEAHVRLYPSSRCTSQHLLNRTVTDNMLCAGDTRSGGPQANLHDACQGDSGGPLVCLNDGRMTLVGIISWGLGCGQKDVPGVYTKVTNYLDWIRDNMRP
# T2 sequence (P03951 19-387 limits assumed): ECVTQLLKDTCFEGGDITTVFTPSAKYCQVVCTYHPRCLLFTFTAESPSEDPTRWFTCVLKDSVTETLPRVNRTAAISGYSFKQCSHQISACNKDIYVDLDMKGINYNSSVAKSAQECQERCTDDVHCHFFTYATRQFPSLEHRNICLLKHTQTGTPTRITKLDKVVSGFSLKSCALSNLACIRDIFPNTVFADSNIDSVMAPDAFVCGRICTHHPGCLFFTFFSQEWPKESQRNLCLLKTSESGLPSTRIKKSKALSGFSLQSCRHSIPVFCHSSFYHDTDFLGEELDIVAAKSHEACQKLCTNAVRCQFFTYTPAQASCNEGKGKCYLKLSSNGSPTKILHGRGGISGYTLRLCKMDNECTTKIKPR
# T2 sequence (P03951 388-625 limits assumed): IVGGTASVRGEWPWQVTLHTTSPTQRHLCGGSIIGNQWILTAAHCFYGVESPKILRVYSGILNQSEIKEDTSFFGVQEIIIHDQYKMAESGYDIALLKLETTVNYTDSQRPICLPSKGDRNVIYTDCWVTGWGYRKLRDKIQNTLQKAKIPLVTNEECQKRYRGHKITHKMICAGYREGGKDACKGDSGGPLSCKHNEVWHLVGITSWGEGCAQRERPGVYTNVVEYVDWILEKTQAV
# T1 sequence (P03952 20-390 limits assumed): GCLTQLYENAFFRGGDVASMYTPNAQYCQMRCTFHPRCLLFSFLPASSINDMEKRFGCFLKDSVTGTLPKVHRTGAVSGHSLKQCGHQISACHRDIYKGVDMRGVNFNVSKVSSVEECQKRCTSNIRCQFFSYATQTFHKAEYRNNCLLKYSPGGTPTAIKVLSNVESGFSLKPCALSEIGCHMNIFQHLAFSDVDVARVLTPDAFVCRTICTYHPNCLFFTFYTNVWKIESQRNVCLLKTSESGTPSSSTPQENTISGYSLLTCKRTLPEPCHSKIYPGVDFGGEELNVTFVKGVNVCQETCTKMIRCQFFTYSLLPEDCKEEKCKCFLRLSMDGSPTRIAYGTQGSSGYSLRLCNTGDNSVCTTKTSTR
# T1 sequence (P03952 391-638 limits assumed): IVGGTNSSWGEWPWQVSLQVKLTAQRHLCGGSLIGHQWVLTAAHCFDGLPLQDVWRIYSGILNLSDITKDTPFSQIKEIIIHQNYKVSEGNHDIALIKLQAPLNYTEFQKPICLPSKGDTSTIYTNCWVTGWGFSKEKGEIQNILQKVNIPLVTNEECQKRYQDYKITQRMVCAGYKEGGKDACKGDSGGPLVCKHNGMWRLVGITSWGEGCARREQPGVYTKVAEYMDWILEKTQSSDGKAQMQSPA
# T3 sequence (P08709 213-466 limits assumed): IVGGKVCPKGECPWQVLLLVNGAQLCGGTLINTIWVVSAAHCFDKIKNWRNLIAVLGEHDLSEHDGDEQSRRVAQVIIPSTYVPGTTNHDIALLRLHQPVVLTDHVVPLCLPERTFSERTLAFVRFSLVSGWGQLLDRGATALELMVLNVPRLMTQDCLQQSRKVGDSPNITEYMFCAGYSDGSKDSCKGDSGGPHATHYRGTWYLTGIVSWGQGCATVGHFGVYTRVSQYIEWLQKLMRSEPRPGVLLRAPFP
# T3 sequence (P08709 61-212 limits assumed): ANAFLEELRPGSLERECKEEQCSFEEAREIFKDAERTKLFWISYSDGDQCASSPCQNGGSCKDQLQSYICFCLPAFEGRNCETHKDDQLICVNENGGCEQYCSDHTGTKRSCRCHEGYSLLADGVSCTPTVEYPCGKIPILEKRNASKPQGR
# T3 sequence (P13726 33-251 partner limits assumed): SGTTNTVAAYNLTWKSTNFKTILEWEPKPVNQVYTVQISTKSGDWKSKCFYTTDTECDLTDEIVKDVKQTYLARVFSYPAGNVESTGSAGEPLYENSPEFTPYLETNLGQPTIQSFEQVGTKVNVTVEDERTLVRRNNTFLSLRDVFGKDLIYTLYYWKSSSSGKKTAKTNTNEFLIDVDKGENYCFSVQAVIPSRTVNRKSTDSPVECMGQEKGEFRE
substance,measurement,setting,value
KD1-Y11T/L17R-KT: 60-residue double mutant (Y11T/L17R) of Kunitz domain1 of human TFPI-2 with C-terminal IEK (NAEICLLPLDTGPCRARLLRYYYDRYTQSCRQFLYGGCEGNANNFYTWEACDDACWRIEK),Inhibition profile with pKLK,Plasma kallikrein (pKLK),No inhibition was observed
same,Inhibition profile with FXIa,human FXIa,No inhibition was observed
same,Inhibition profile with FVIIa/sTF,FVIIa/sTF,No inhibition was observed
same,"koff, DIP-δplasmin",DIP-δplasmin,7.13±0.9×10^−5 s^−1
same,"kon, DIP-δplasmin",DIP-δplasmin,1.49±0.3×10^3 M^−1s^−1
same,Kd,"DIP-δplasmin; read-out: Kd, DIP-δplasmin (kringle domain of plasminogen/plasmin)",~50 nM
same,Kd,tPA,~35 nM
same,"koff, tPA",tPA,1.05±0.7×10^−4 s^−1
same,"kon, tPA",tPA,2.91±0.4×10^3 M^−1s^−1
same,Max OD405,[1]; 0.5 μM inhibitor + tPA,1.54 ± 0.14
same,OD405 at 60 min,[1]; 0.5 μM inhibitor + tPA,0.85 ± 0.13
same,Fibrinolysis midpoint time,[1]; 1.0 μM inhibitor + tPA,27 ± 1.1 min
same,Max OD405,[1]; 1.0 μM inhibitor + tPA,1.54 ± 0.11
same,OD405 at 60 min,[1]; 1.0 μM inhibitor + tPA,0.84 ± 0.12
same,Fibrinolysis midpoint time,[1]; 2.0 μM inhibitor + tPA,>60 min
same,Max OD405,[1]; 2.0 μM inhibitor + tPA,1.58 ± 0.09
same,OD405 at 60 min,[1]; 2.0 μM inhibitor + tPA,1.35 ± 0.06
same,Fibrinolysis midpoint time,[1]; 3.0 μM inhibitor + tPA,>60 min
same,Max OD405,[1]; 3.0 μM inhibitor + tPA,1.71 ± 0.10
same,OD405 at 60 min,[1]; 3.0 μM inhibitor + tPA,1.57 ± 0.08
same,OD405 at 60 min,[1]; […] inhibitor + tPA,0.86 ± 0.15
same,G,[2]; [3],~3004 dyn/cm^2
same,LY60,[2]; [3],~12%
same,"Clot strength MA restored, relative to blood without plasmin","[2]; […] plasmin, inhibitor 5 μM",~80%
same,"G restored, relative to blood without plasmin","[2]; […] plasmin, inhibitor 5 μM",~65%
same,"G restored, relative to blood without plasmin","[2]; […] plasmin, inhibitor 7.5 μM",~70%
same,"MA restored, relative to blood without plasmin","[2]; […] plasmin, inhibitor 7.5 μM",~83%
same,Prevention of blood loss,mouse injury models,successful in preventing blood loss
